The results in this text go back to US20240166681A1, “3'3' CYCLIC DINUCLEOTIDES CONTAINING ISONUCLEOTIDIC UNITS” (INSTITUTE OF ORGANIC CHEMISTRY AND BIOCHEMISTRY AS CR, V. …, priority 2021, published 2024).

Usually ΔTm stands for the change in melting temperature against a reference sample.

The test has as its target T1, AQ STING (G230A-R293Q) (Homo sapiens, UniProt Q86WV6, G230A/H232R/R293Q).
T1 construct: truncated human WT STING or AQ STING (amino acid residues 140-343); 8xHis (N, cleaved yes); SUMO (N, cleaved yes); made in house; host or cells: E. coli Rosetta-gami B (DE3)
Kind of test: Differential scanning fluorimetry with AQ STING. In kind it is binding. The conditions noted are these: thermal shift, truncated human AQ STING 0.1 mg/ml, 150 μM CDN; for ΔTm at 150 µM: read-out: DSF ΔTm AQ STING. The text has this:
Both WT and AQ human STING (G230A-R293Q) cDNA were amplified by the use of PCR (Phusion® High-Fidelity DNA Polymerase, cat. #M0530S, NEB, Ipswich, USA) using oligonucleotides hSTING140-BamH-For ([…]) (SEQ ID NO:5) and hSTING379-Not-Rev3 ([…]) (SEQ ID NO:6) from pUNO1-hSTING-WT (cat. #puno1-hstingwt, InvivoGen, San Diego, USA) and pUNO1-hSTING-HAQ plasmids (punol-hsting-haq, InvivoGen, San Diego, USA). Purified PCR products were cleaved with restriction enzymes BamHI (cat. #R0136S, NEB, Ipswich, USA) and Notl (cat. #R0189S, NEB, Ipswich, USA) and cloned into the pSUMO vector linearized with the identical enzymes. Plasmid pSUMO was created by introducing 8-His-SUMO sequence between Ndel and BamHI sites of pHis-parallel2 plasmid (Clontech, Moutain View, USA). pSUMO-STING WT or pSUMO-STING AQ plasmids thus encoded truncated human WT STING or AQ STING (amino acid residues 140-343) with N-terminal 8xHis and SUMO tag.
The recombinant WT STING and AQ STING proteins were overexpressed in Rosetta-gami B (DE3) competent cells (cat. #71136-3, Merck Millipore, Billerica, USA). Bacterial pellets were re-suspended in ice-cold lysis buffer containing 50 mmol·l^−1 TrisCl (cat. #T1503, Sigma Aldrich, Czech Republic) pH 8.0, 300 mmol·l^−1 NaCl, 3 mmol·l^−1 β-mercaptoethanol (cat. #M6250, Sigma Aldrich, Czech Republic), 10% glycerol (cat. #G5516, Sigma Aldrich, Czech Republic) and 20 mmol·l^−1 imidazole (cat. #15513, Sigma Aldrich, Czech Republic) using Dounce homogenizer. DNase I (cat. #D5025, Sigma Aldrich, Czech Republic) and RNase A (cat. #R6513, Sigma Aldrich, Czech Republic) were added (final concentration 50 μg/ml) together with MgCl2 (final concentration 5 mmol·l^−1) to the homogenate and bacteria were lysed using French Press G-M™ High-Pressure Cell Press Homogenizer (1500 psi, 3 cycles). Lysate was spun 30,000 g for 20 minutes and supernatant was gently stirred with Ni-NTA resin (cat. #745400.25 Macherey-Nagel, Duren, Germany) for 30 minutes. The resin was poured into a chromatography column, washed with 50 ml buffer A (50 mmol·l^−1 TrisCl (pH 8.0), 800 mmol·l^−1 NaCl, 3 mmol·l^−1 (3-mercaptol; 10% glycerol; 20 mmol·l^−1 imidazole) and 8-His-SUMO tagged STING proteins were eluted with 15 ml buffer A containing 300 mmol·l^−1 imidazole. The eluted proteins were cleaved with recombinant SUMO protease (80 μg/ml of protein solution, cat. #12588018, ThermoFisher, Waltham, USA). The proteins were further purified by size exclusion chromatography using HiLoad 16/60 Superdex 75 (cat. #28989333, GE Healthcare Bio-Sciences, Pittsburgh, USA) in 50 mmol·l^−1 Tris Cl buffer pH 7.4 containing 150 mmol·l^−1 NaCl, and 10% glycerol. Proteins were concentrated with Amicon® Ultra-15 10 K device (cat. #UFC901008, Merck Millipore, Billerica, USA) and flash frozen in liquid N2.
WT and AQ allelic forms of STING protein were diluted to the final concentration 0.1 mg/ml in 100 mmol·l^−1 TrisCl buffer pH 7.4 containing, 150 mmol·l^−1 NaCl, 1:500 SYPRO Orange (cat. #S6650, ThermoFisher, Waltham, USA) and 150 μM CDN or water. 20 μL solutions of the reaction mixtures were pipetted in triplicates into 96 well optical reaction plates and thermal denaturation of samples were performed on real time PCR cycler (LightCycler® 480 Instrument II—Roche, Basel, Switzerland). The first derivative of the thermal denaturation curves was performed to calculate denaturing temperatures of STING—CDN complexes and STING apoproteins. The thermal shift for each CDN was calculated by subtracting the average denaturing temperature of STING apoprotein from the average denaturing temperature of STING CDN complex.
(In general: In DSF a fluorescence change marks the thermal transition of the protein.)

Each structure is given as a SMILES string.

T1 sequence (Q86WV6 140-343 G230A/H232R/R293Q): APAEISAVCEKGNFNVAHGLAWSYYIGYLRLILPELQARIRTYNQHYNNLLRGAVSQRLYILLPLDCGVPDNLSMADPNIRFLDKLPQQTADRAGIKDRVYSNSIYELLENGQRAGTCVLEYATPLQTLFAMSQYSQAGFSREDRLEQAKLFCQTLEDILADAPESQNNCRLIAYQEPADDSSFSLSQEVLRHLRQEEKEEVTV

Consider `Nc1nc2c(ncn2[C@@H]2CO[C@@H]3COP(=O)(O)O[C@H]4[C@H](n5cnc6c(N)ncnc65)CO[C@@H]4COP(=O)(O)O[C@@H]23)c(=O)[nH]1` [Compound 52, (1S,6R,9R,10S,15R,18R)-9-(2-amino-6-oxo-6,9-dihydro-1H-purin-9-yl)-18-(6-amino-9H-purin-9-yl)-3,12-dihydroxy-2,4,7,11,13,16-hexaoxa-3λ^5,12λ^5-diphosphatricyclo[13.3.0.0^6,10]octadecane-3,12-dione], for which the ΔTm at 150 µM was determined as 10.7 °C.

Take `Nc1ncnc2c1ncn2[C@@H]1CO[C@@H]2COP(=O)(O)O[C@H]3C[C@H](n4cnc5c(N)ncnc54)O[C@@H]3COP(=O)(O)O[C@@H]12` [Compound 50, (1S,6R,8R,10S,15R,18R)-8,18-bis(6-amino-9H-purin-9-yl)-3,12-dihydroxy-2,4,7,11,13,16-hexaoxa-3λ^5,12λ^5-diphosphatricyclo[13.3.0.0^6,10]octadecane-3,12-dione]: the ΔTm at 150 µM was 9.3 °C.

For `Nc1ncnc2c1ncn2[C@@H]1CO[C@@H]2COP(=O)(O)O[C@H]3[C@@H](F)[C@H](n4cnc5c(N)ncnc54)O[C@@H]3COP(=O)(O)O[C@@H]12` [Compound 28, (1S,6R,8R,9R,10R,15R,18R)-8,18-bis(6-amino-9H-purin-9-yl)-9-fluoro-3,12-dihydroxy-2,4,7,11,13,16-hexaoxa-3λ^5,12λ^5-diphosphatricyclo[13.3.0.0^6,10]octadecane-3,12-dione], the ΔTm at 150 µM is 13.3 °C.

As for `Nc1nc2c(ncn2[C@@H]2CO[C@@H]3COP(=O)(O)O[C@H]4[C@@H](F)[C@H](n5cnc6c(N)ncnc65)O[C@@H]4COP(=O)(O)O[C@@H]23)c(=O)[nH]1` [Compound 51, (1S,6R,8R,9R,10R,15R,18R)-18-(2-amino-6-oxo-6,9-dihydro-1H-purin-9-yl)-8-(6-amino-9H-purin-9-yl)-9-fluoro-3,12-dihydroxy-2,4,7,11,13,16-hexaoxa-3λ^5,12λ^5-diphosphatricyclo[13.3.0.0^6,10]octadecane-3,12-dione], the ΔTm at 150 µM is 15.8 °C.

For `Nc1nc2c(ncn2[C@@H]2O[C@@H]3COP(=O)(O)O[C@H]4[C@H](n5cnc6c(N)ncnc65)CO[C@@H]4COP(=O)(O)O[C@H]3[C@H]2F)c(=O)[nH]1` [Compound 24, (1S,6R,8R,9R,10R,15R,18R)-8-(2-amino-6-oxo-6,9-dihydro-1H-purin-9-yl)-18-(6-amino-9H-purin-9-yl)-9-fluoro-3,12-dihydroxy-2,4,7,11,13,16-hexaoxa-3λ^5,12λ^5-diphosphatricyclo[13.3.0.0^6,10]octadecane-3,12-dione], the ΔTm at 150 µM came out at 16.9 °C.

As for `Nc1ncnc2c1ncn2[C@@H]1CO[C@@H]2COP(=O)(S)O[C@H]3[C@@H](F)[C@H](n4cnc5c(N)ncnc54)O[C@@H]3COP(=O)(S)O[C@@H]12` (stereo partly drawn) [Compound 55, (1S,6R,8R,9R,10R,15R,18R)-8,18-bis(6-amino-9H-purin-9-yl)-9-fluoro-3,12-disulfanyl-2,4,7,11,13,16-hexaoxa-3λ^5,12λ^5-diphosphatricyclo[13.3.0.0^6,10]octadecane-3,12-dione], the “DSF ΔTm AQ STING” value was 20.0 °C.

With `Nc1ncnc2c1ncn2[C@@H]1CC[C@@H]2COP(=O)(O)O[C@H]3[C@@H](F)[C@H](n4cnc5c(N)ncnc54)O[C@@H]3COP(=O)(O)O[C@H]21` [Compound 34, (1R,6R,8R,9R,10R,15R,18R)-8,18-bis(6-amino-9H-purin-9-yl)-9-fluoro-3,12-dihydroxy-2,4,7,11,13-pentaoxa-3λ^5,12λ^5-diphosphatricyclo[13.3.0.0^6,10]octadecane-3,12-dione], the ΔTm at 150 µM was 9.2 °C.

In the case of `Nc1nc2c(ncn2[C@@H]2CO[C@@H]3COP(=O)(O)O[C@H]4C[C@H](n5cnc6c(N)ncnc65)O[C@@H]4COP(=O)(O)O[C@@H]23)c(=O)[nH]1` [Compound 53, (1S,6R,8R,10S,15R,18R)-18-(2-amino-6-oxo-6,9-dihydro-1H-purin-9-yl)-8-(6-amino-9H-purin-9-yl)-3,12-dihydroxy-2,4,7,11,13,16-hexaoxa-3λ^5,12λ^5-diphosphatricyclo[13.3.0.0^6,10]octadecane-3,12-dione], the ΔTm at 150 µM is 11.5 °C.

As to `Nc1ncnc2c1ncn2[C@@H]1CO[C@@H]2COP(=O)(S)O[C@H]3[C@@H](F)[C@H](n4cnc5c(N)ncnc54)O[C@@H]3COP(=O)(S)O[C@@H]12` (stereo partly drawn) [Compound 54, (1S,6R,8R,9R,10R,15R,18R)-8,18-bis(6-amino-9H-purin-9-yl)-9-fluoro-3,12-disulfanyl-2,4,7,11,13,16-hexaoxa-3λ^5,12λ^5-diphosphatricyclo[13.3.0.0^6,10]octadecane-3,12-dione], the ΔTm at 150 µM was determined as 17.2 °C.
